Results from PubChem BioAssay AID720589 (Broad Institute, 2013).
Activity calls are given as the source filed them.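 How the source made its calls: active means fitted curve drops below -35% activity at a concentration within twice the top valid tested dose; inconclusive means no clear call, values can overlap the other calls; inactive means signal rising instead of falling, among other cases.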

Test: ATP-based viability loss in HepG2 cells – cell-based, CellTiter-Glo luminescence, cherry-pick, set 3, cytotoxicity control, dose response (AID 720589)
Settings: HepG2 viability, ATP luminescence (CellTiter-Glo), 72 h; at 0.011 µM; stronger effect = lower value; 0% = untreated, negative = ATP loss

| Structure (SMILES) | max activity |
| --- | --- |
| COC(=O)C[C@@H]1CC[C@@H]2[C@H](COc3ccc(NC(=O)c4ccc(C(F)(F)F)cc4)cc3C(=O)N2C)O1 | -32.2% (inactive) |
| Cc1csc(NC(=O)CCc2c(C)nc3cc(-c4ccc(Cl)cc4)nn3c2C)n1 | 11.5% (inactive) |
| CCNC(=O)c1cccc(S(=O)(=O)N2CCCCCC2)c1 | -31.4% (inactive) |
| C/C=C/c1ccc([C@H]2[C@@H](CO)N3C(=O)CN(S(=O)(=O)c4cccc(F)c4)C[C@@H]23)cc1 | 26.3% (inactive) |
| COc1ccccc1-c1cn(CC[C@H]2CC[C@@H](NC(=O)C3CCCC3)[C@@H](CO)O2)nn1 | 18.9% (inactive) |
| Cc1ccc(N=C2NC(=O)/C(=C\c3cccs3)S2)cc1C | -17.8% (inactive) |
| N/C(=C\C(=O)c1cc(Cl)ccc1O)C(Cl)(Cl)Cl | -18.1% (inactive) |
| COc1ccc(/C=C2/NC(=O)N(CC(=O)Nc3cccc(C)c3)C2=O)cc1O | 18.1% (inactive) |
| COC(=O)C[C@H]1CC[C@H]2[C@H](COc3ccc(NC(=O)Nc4cccc(Cl)c4)cc3C(=O)N2C)O1 | -21.5% (inactive) |
| Cc1cc(C(=O)NNC(=O)c2ccc(S(=O)(=O)N(C)C)cc2)c(C)o1 | 20% (inactive) |

Same assay, conditions: HepG2 viability, ATP luminescence (CellTiter-Glo), 72 h; at 0.012 µM; stronger effect = lower value; 0% = untreated, negative = ATP loss

| Structure (SMILES) | max activity |
| --- | --- |
| CN(C)C(=O)c1ccc(-c2ccccc2[C@@H]2[C@@H](CO)N(C(=O)C3CC3)[C@H]2C#N)cc1 | 20.5% (inactive) |

Same assay, conditions: HepG2 viability, ATP luminescence (CellTiter-Glo), 72 h; at 0.035 µM; stronger effect = lower value; 0% = untreated, negative = ATP loss

| Structure (SMILES) | max activity |
| --- | --- |
| O=C(O)c1ccccc1C(=O)Nc1ccc(Oc2cccc3ccccc23)cc1 | -12.6% (inactive) |
| Cc1c(Cl)cnc(NC(=O)COC(=O)c2ccc3ncsc3c2)c1Cl | -18.7% (inactive) |
| CCCn1c(C)cc(C(=O)CN2C(=O)c3ccccc3S2(=O)=O)c1C | 5.3% (inactive) |
| S=C(NCCN1CCOCC1)Nc1ccccc1Cl | -36.4% (inactive) |
| COc1ccc(/C=C2\SC(=O)N(CCCC(=O)Nc3cc(Cl)ccc3C(=O)O)C2=O)cc1 | -25.6% (inactive) |
| COc1ccc(C2=Nn3c(nnc3-c3ccccc3OC)SC2)cc1OCC1CC1 | -29% (inactive) |
| O=C1C(=O)N(Cc2cccs2)c2ccccc21 | -28.1% (inactive) |

Same assay, conditions: HepG2 viability, ATP luminescence (CellTiter-Glo), 72 h; at 0.1 µM; stronger effect = lower value; 0% = untreated, negative = ATP loss

| Structure (SMILES) | max activity |
| --- | --- |
| COc1cccc(Sc2ccccc2/C=N/NC(N)=O)c1 | -25.8% (inactive) |
| COc1ccc(OC)c(-c2cc(C(F)(F)F)c3c(n2)sc2c(O)cc(=O)[nH]c23)c1 | -37% (inactive) |
| CCCCN=C(NNc1ccc(Br)cc1)C(=O)OCC | -31% (inactive) |
| CN(C(=O)COC(=O)c1cc(-c2ccccc2Cl)nc2ccccc12)C1CCS(=O)(=O)C1 (stereo not given) | -27.5% (inactive) |
| C/C(=N\Nc1cccc2cccnc12)c1ccccn1 | -36.8% (inactive) |
| Cc1[nH]c(=S)sc1Cc1ccc(Cl)c(Cl)c1 | -20.8% (inactive) |
| COCCOC(=O)N1C(=O)[C@@]2(c3cc(C#CCC(C(=O)OC)C(=O)OC)ccc31)[C@H](c1ccccc1OCCO)N1[C@H](c3ccccc3)[C@H](c3ccccc3)OC(=O)[C@H]1[C@@H]2C(=O)N1CCN(c2ncccn2)CC1 | -30.6% (inactive) |

Same assay, conditions: HepG2 viability, ATP luminescence (CellTiter-Glo), 72 h; at 0.3 µM; stronger effect = lower value; 0% = untreated, negative = ATP loss

| Structure (SMILES) | max activity |
| --- | --- |
| COC(=O)C[C@H]1CC[C@@H]2[C@H](COc3ccc(NC(=O)Nc4cccc(Cl)c4)cc3C(=O)N2C)O1 | -38.3% (inactive) |
| COC(=O)C[C@@H]1CC[C@@H]2[C@H](COc3ccc(NC(=O)c4cccc(F)c4)cc3C(=O)N2C)O1 | -26.8% (inactive) |
| CCOc1ccc(NC(=O)C(=O)N/N=C\c2ccc(CNS(=O)(=O)c3ccccc3)o2)cc1 | -36.6% (inactive) |
| Cc1ccc(Cc2c(-c3ccco3)nc3c(C)cc(Br)cn23)cc1 | -46.1% (inactive) |
| Cc1cc(C(=O)Nc2ccc3c(c2)C(=O)N(C)[C@@H]2CC[C@@H](CC(=O)NCc4ccc(-c5ccccc5)cc4)O[C@H]2CO3)no1 | -28.4% (inactive) |
| C[C@H]1CN([C@@H](C)CO)S(=O)(=O)c2ccc(C#Cc3ccncc3)cc2O[C@@H]1CN(C)S(=O)(=O)c1ccccc1 | -9.66% (inactive) |
| COc1ccc(C2=Nn3c(nnc3-c3ccccc3F)SC2)cc1OC1CCOC1 (stereo not given) | -28.9% (inactive) |
| CC(C)(C)C(=O)Nc1ccc(N=Nc2ccccc2)cc1 | -12.3% (inactive) |
| COCc1cc(C)nc2sc(C(=O)NCCO)c(-n3cccc3)c12 | 7.49% (inactive) |
| CC(C)CN(C(=O)CN1CCOCC1)c1c(N)n(CC(C)C)c(=O)[nH]c1=O | -39% (inactive) |

Same assay, conditions: HepG2 viability, ATP luminescence (CellTiter-Glo), 72 h; at 0.35 µM; stronger effect = lower value; 0% = untreated, negative = ATP loss

| Structure (SMILES) | max activity |
| --- | --- |
| COC(=O)C[C@@H]1CC[C@H]2[C@H](COc3ccc(NC(=O)Nc4cc(C)cc(C)c4)cc3C(=O)N2C)O1 | 15% (inactive) |

Same assay, conditions: HepG2 viability, ATP luminescence (CellTiter-Glo), 72 h; at 0.9 µM; stronger effect = lower value; 0% = untreated, negative = ATP loss

| Structure (SMILES) | max activity |
| --- | --- |
| O=C1C(=O)N(CCS(=O)(=O)c2ccccc2)c2ccc(Cl)cc21 | -12.3% (inactive) |
| c1cncc(-c2ccc([C@@H]3[C@H]4CNC[C@@H]3N4CC3CCOCC3)cc2)c1 | -28.8% (inactive) |
| O=c1oc2cc(O)ccc2s1 | -35.6% (inactive) |
| COc1ccc(/C=C2/SC(=S)N(CCCC(=O)Nc3ccccc3C(=O)O)C2=O)cc1 | -31.4% (inactive) |

Same assay, conditions: HepG2 viability, ATP luminescence (CellTiter-Glo), 72 h; at 2.85 µM; stronger effect = lower value; 0% = untreated, negative = ATP loss

| Structure (SMILES) | max activity |
| --- | --- |
| COc1ccc(OC)c(-c2nnc3n2N=C(c2ccc(OC)c(OC4CCOC4)c2)CS3)c1 (stereo not given) | -28.2% (inactive) |
| Cc1ccccc1N=CC1=C(O)c2ccccc2C1=O | 18.8% (inactive) |
| Oc1c(Cl)cc(Cl)c(Cl)c1Cc1c(O)c(Cl)cc(Cl)c1Cl | -40.1% (inactive) |
| O=C(C[C@@H]1CC[C@@H]2[C@H](COC[C@@H](O)CN2S(=O)(=O)c2ccc(F)cc2)O1)NCc1ccc(Cl)c(Cl)c1 | -11.2% (inactive) |
| COc1cc(-c2coc3c(C(=O)NCc4ccc(C(F)(F)F)cc4)cccc23)ccc1O | -25.6% (inactive) |
| N#C[C@@H]1[C@H](c2ccc(C#Cc3ccccc3F)cc2)[C@@H](CO)N1C(=O)c1cccnc1 | -22% (inactive) |
| COC(=O)C[C@@H]1CC[C@@H]2[C@@H](COc3ccc(NC(=O)Nc4cccc(F)c4)cc3C(=O)N2C)O1 | -34.7% (inactive) |

Same assay, conditions: HepG2 viability, ATP luminescence (CellTiter-Glo), 72 h; at 3 µM; stronger effect = lower value; 0% = untreated, negative = ATP loss

| Structure (SMILES) | max activity |
| --- | --- |
| CCNC(=O)c1cc2c(c(-c3cccc(-c4cccc(OC)c4)c3)n1)[C@H](CCO)N([S@@](=O)C(C)(C)C)C2 | -28.9% (inactive) |

Same assay, conditions: HepG2 viability, ATP luminescence (CellTiter-Glo), 72 h; at 8 µM; stronger effect = lower value; 0% = untreated, negative = ATP loss

| Structure (SMILES) | max activity |
| --- | --- |
| CN(C)Cc1c(O)ccc2c1O/C(=C\C=C\c1ccccc1)C2=O | -26.2% (inactive) |
| CCOc1ccc(/C=C2\CCc3ccccc3C2=O)cc1 | -13.7% (inactive) |
| CCc1ccc(S(=O)(=O)c2ccc(-n3nc(C)cc3N)cc2)cc1 | 24% (inactive) |
| O=C(Cc1nn[nH]n1)c1ccccc1O | -19.1% (inactive) |
| O=C(O)c1ccc(N/N=C/c2c(F)cccc2Cl)cc1 | -13.6% (inactive) |
| CN(C)c1ccc(-c2ccnc3c2CC(C)(C(=O)NCc2ccco2)O3)cc1 (stereo not given) | -25.6% (inactive) |
| COc1ccc(C2c3cc4c(cc3OC(NNC(N)=O)C2C)OCO4)cc1 (stereo not given) | -29.8% (inactive) |
| C[C@H](CO)N1C[C@H](C)[C@H](CN(C)Cc2ccc(C(F)(F)F)cc2)Oc2ccc(NC(=O)CCCCCC(=O)Nc3ccccc3N)cc2CC1=O | -23.5% (inactive) |
| COc1ccccc1CNC(=O)C[C@@H]1CC[C@H]2[C@@H](COC[C@H](O)CN2C(=O)Nc2ccc(C(F)(F)F)cc2)O1 | -30.7% (inactive) |

Same assay, conditions: HepG2 viability, ATP luminescence (CellTiter-Glo), 72 h; at 26 µM; stronger effect = lower value; 0% = untreated, negative = ATP loss

| Structure (SMILES) | max activity |
| --- | --- |
| COC(=O)Cc1[nH]n(-c2nc3ccccc3s2)c(=O)c1C(C)=Nc1ccc(OC)cc1 | -20.2% (inactive) |
| Cc1ccc(N2C(=O)c3cccc4c(N)ccc(c34)C2=O)c2cccnc12 | -20.7% (inactive) |
| COc1ccc(C2=NNC(=Nc3cc(S(=O)(=O)N(C)C)ccc3C)SC2)c(OC)c1 | -17.3% (inactive) |
| COc1ccc(C(C)(O)c2nc(-c3cccc(F)c3)cs2)cc1 (stereo not given) | -21.6% (inactive) |
| O=C1CCC2S/C(=C/Nc3ccc(C(F)(F)F)cc3)C(=O)N12 (stereo not given) | 25.6% (inactive) |
| CCOc1ccc(N=Nc2ccc(O)c3ncccc23)cc1 | -26.7% (inactive) |
| C[C@@H]1CN([C@H](C)CO)C(=O)CCCn2nncc2CO[C@H]1CN(C)Cc1ccc(Oc2ccccc2)cc1 | -33.6% (inactive) |
| CC(C)N1C/C(=C/c2cccnc2)C(=O)/C(=C/c2cccnc2)C1 | -29.5% (inactive) |
| O=C(N/N=C/c1ccc[nH]1)c1cc(-c2ccc(Cl)cc2)nc2ccccc12 | -21.3% (inactive) |
| CC1=NN(c2ccccc2)C(=O)/C1=C\C=C\c1ccccc1 | -54.8% (inactive) |
| COc1ccc(/C=C(/C(=O)c2cccs2)N2C=CC=CC2=C(C#N)C#N)cc1 | -33.6% (inactive) |
| CC(C)(C)c1ccc(Oc2ccc(NC(=O)C3CC=CCC3C(=O)O)cc2)cc1 (stereo not given) | 17.4% (inactive) |
| CC1=NC(=O)C(N=Nc2cccc(C(=O)O)c2)N1c1ccccc1 (stereo not given) | -23.4% (inactive) |
| CC(=O)ON=C1C=CC(=C(C#N)c2ccccc2)C=C1 | -27.6% (inactive) |
| C#CCOCCOCCOCCNc1nc(N2CCN(C(=O)CCCCCCCCCCNC(=O)Cn3cc(C[C@@H](C)O)nn3)CC2)nc(N2CCN(C(=O)CCCCCCCCCCNC(=O)[C@H](CO)n3cc(CCCSC)nn3)CC2)n1 | 39.2% (inactive) |
| CCOc1ccc(OCc2ccc(C(=O)NN=Cc3ccc[nH]3)cc2)cc1 | -34% (inactive) |
| CO[C@H]1CN(C)C(=O)c2cc(NC(=O)c3ccc(Oc4ccccc4)cc3)ccc2OC[C@H](C)NC[C@@H]1C | -95.1% (inactive) |
| CCC1=Nc2cc(C(=O)NCC3CCCO3)ccc2Sc2ccc(Br)cc21 (stereo not given) | -32.3% (inactive) |
